“Also recorded” adds a separate entry of the source. Like-named read-outs stand apart in the source and are kept apart here.
Key:
[1] = Solid phase stability experiment (XRPD, HPLC, TGA after one week); assay type: physicochemical; conditions: for Purity (%): HPLC; for Weight loss (%): TGA; for crystal transition: XRPD
Method: An appropriate amount of samples were weighed and stored at 25° C./60% RH and 40° C./75% RH (unsealed), respectively. Another set of samples were sealed and kept as a control at 5° C. at the same time. All samples were characterized by XRPD, HPLC and TGA one week later, and the crystal form, purity and weight loss were tested.

[2] = Dynamic solubility experiment in water, SGF, FaSSIF, FeSSIF; assay type: physicochemical; conditions: thermodynamic from solid, room temperature
A431 cells [3] = test: Cytostatic activity by MTT method, A431; assay type: cell-based
H1975 cells [4] = test: Cytostatic activity by MTT method, H1975; assay type: cell-based
EGFR WT kinase = biological target: T1, EGFR WT kinase (Homo sapiens, UniProt P00533); test: Wild type EGFR kinase inhibition test (z-lyte); assay type: biochemical
T1 construct: purchased Invitrogen PV3872

[5] = Hygroscopicity / DVS test; assay type: physicochemical; conditions: for moisture absorbed: humidity increased to 80% RH at 25° C.
Method: Dynamic Vapor Sorption (DVS) curve: collected on DVS Intrinsic SMS (Surface Measurement Systems). The relative humidity at 25° C. is corrected with the deliquescent points of LiCl, Mg (NO3)2 and KCl.
The rate of weight loss increases when the humidity is reduced to 20% RH at 25° C.
The DVS test was performed on crystal form II sample at a constant temperature of 25° C.
In order to assess the stability of anhydrous crystal form I and hydrate crystal form II under different humidity conditions, DVS assay was performed on samples of anhydrous crystal form I and hydrate crystal form II at constant 25° C.
When the humidity reaches 20% RH, a turning point appears in the isothermal map of DVS, which is caused by the transition from anhydrous crystal form I to hydrate form II according to the XRPD comparison of the samples before and after the DVS assay shown in FIG. 32. The actual moisture absorbed is less than the moisture content of crystal form II sample due to the slow solid phase transition rate.

[6] = Suspension competition test between crystal forms; assay type: physicochemical; conditions: for stability relationship crystal form II / IV: acetone/H2O (aw 0.6), about 5 minutes
Method: Firstly, the suspension of maleate crystal form C-1 in acetone was prepared at two temperature respectively, and filtered after balancing for about one hour.
In order to further confirm the stability relationship between anhydrous crystal form I and hydrate crystal form II under different water activity conditions at room temperature, the mixture of crystal form I and crystal form II was suspended and stirred in acetone/H2O solvent system with different water activities (aw—0.2/0.4/0.6/0.8).
In order to study the stability relationship between different hydrate crystal form II and IV at room temperature to 50° C., a suspension competition test was set up in aqueous system at room temperature and 50° C. respectively. Firstly, the free base suspension in acetone/H2O (aw—0.6) was prepared at room temperature and 50° C. respectively. After balancing at the corresponding temperature for about 1 hour, the suspension was filtered to obtain the near saturated solution at the corresponding temperature. An equal quantity of crystal form II and IV samples (about 6 mg each) was added to 0.8 ml of saturated solution to form a suspension which was magnetically stirred (−800 rpm) at room temperature and 50° C. for about 5 minutes, and sampled for XRPD test.

[7] = In vivo test of rats, pharmacokinetics after oral gavage; parameters: species or system SD rats; conditions: rat, oral gavage 5 mg/kg; for Area under the curve AUC / Half-life T1/2: plasma
[8] = room temperature, crude solubility
[9] = Storage of crystal form C-1 at 80° C. for 24 hours (XRPD, HPLC); assay type: physicochemical
H1975 cells [10] = test: Activities of EGFR T790M inhibitor on cells by ELISA, H1975; assay type: cell-based; conditions: Homo sapiens, NCI-H1975
NIH3T3 cells = test: Cytotoxicity against NIH3T3 cells, MTT assay; assay type: cell-based; conditions: Mus musculus, 72 h incubation
A431 cells [11] = test: Activities on cells by ELISA, A431 (EGF stimulated); assay type: cell-based; conditions: Homo sapiens, A-431

T1 sequence (P00533 25-1210): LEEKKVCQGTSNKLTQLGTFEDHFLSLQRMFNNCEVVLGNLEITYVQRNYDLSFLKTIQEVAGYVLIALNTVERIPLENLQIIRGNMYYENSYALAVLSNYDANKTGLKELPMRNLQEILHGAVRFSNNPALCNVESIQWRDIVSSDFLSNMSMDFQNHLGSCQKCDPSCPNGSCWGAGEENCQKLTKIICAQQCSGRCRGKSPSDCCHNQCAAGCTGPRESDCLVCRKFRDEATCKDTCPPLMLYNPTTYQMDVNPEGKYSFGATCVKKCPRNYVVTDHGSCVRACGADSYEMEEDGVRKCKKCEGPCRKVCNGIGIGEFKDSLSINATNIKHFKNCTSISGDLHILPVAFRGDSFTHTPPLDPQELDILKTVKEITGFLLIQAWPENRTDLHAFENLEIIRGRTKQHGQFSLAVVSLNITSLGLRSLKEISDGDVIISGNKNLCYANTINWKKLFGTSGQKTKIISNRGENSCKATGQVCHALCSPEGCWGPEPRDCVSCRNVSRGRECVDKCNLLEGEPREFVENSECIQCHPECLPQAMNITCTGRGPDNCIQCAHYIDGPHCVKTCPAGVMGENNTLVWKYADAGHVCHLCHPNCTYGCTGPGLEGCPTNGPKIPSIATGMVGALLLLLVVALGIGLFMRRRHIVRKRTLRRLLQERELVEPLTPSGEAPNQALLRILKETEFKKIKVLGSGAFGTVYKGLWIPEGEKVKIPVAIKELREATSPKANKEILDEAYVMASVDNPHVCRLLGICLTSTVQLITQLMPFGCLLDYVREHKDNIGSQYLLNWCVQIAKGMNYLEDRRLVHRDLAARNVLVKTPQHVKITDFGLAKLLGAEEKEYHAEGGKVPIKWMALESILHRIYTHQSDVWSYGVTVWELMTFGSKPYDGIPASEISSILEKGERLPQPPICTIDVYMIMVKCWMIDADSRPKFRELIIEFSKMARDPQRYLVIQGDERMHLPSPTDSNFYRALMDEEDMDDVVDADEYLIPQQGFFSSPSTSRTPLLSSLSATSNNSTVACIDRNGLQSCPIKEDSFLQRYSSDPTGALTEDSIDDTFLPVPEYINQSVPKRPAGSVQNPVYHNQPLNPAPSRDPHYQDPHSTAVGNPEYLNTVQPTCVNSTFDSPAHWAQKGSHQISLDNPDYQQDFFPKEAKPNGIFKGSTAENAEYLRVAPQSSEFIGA

Compound	Purity (%) ([1]; 5° C. (control), sealed)	Weight loss (%) ([1]; 5° C. (control), sealed)	Weight loss (%) ([1]; 25° C./60% RH, unsealed)	crystal transition ([1]; 25° C./60% RH, unsealed)	Weight loss (%) ([1]; 40° C./75% RH, unsealed)	crystal transition ([1]; 40° C./75% RH, unsealed)	Maximum plasma concentration Cmax [7]	Area under the curve AUC [7]	Half-life T1/2 [7]	also measured
C=CC(=O)Nc1cc(Nc2ncc(F)c(-c3cnn(C)c3)n2)c(OC)cc1N1CCC(N(C)C)CC1 [the free base of compound of formula X, N-(2-(4-(dimethylamino)piperidin-1-yl)-5-(5-fluoro-4-(1-methyl-1H-pyrazol-4-yl)pyrimidin-2-ylamino)-4-methoxyphenyl)acrylamide]	99.23%	5.1%	5.3%	no	6.2%	no	–	–	–	solubility at 1 h ([2]; fasting state simulated intestinal fluid (FaSSIF), FaSSIF, after 1 hour of solid dispersion): 4200 µg/mL; solubility at 1 h ([2]; feeding state simulated intestinal fluid (FeSSIF), FeSSIF, after 1 hour of solid dispersion): ≥ 10500 µg/mL; solubility at 1 h ([2]; simulated gastric fluid (SGF), simulated gastric fluid, SGF, after 1 hour of solid dispersion): ≥ 8500 µg/mL; solubility at 1 h ([2]; fourth solvent (head is an image; water), after 1 hour): 10 µg/mL; inhibitory activities against EGFR wild-type cells (A431 cells), in words (A431 cells [3]): weak inhibitory activities; inhibitory activities against EGFR mutant cells (H1975 cells), in words (H1975 cells [4]): strong inhibitory activities; inhibitory activities against EGFR wild-type enzyme, in words (EGFR WT kinase): weak inhibitory activities
C=CC(=O)Nc1cc(Nc2ncc(F)c(-c3cnn(C)c3)n2)c(OC)cc1N1CCC(N(C)C)CC1 [crystal form I]	–	–	–	–	–	–	–	–	–	humidity at turning point of DVS isotherm (transition from anhydrous crystal form I to hydrate form II) ([5]; 25° C.): 20 % RH
C=CC(=O)Nc1cc(Nc2ncc(F)c(-c3cnn(C)c3)n2)c(OC)cc1N1CCC(N(C)C)CC1 [crystal form IV]	–	–	–	–	–	–	–	–	–	stability relationship crystal form II / IV ([6]; room temperature and 50° C.): quickly converted to hydrate crystal form II
C=CC(=O)Nc1cc(Nc2ncc(F)c(-c3cnn(C)c3)n2)c(OC)cc1N1CCC(N(C)C)CC1 [crystal form II]	–	–	–	–	–	–	–	–	–	weight loss in DVS ([5]; 25° C., humidity above 10% RH): essentially no weight loss; also recorded: almost no weight loss; water absorbed ([5]; DVS, 25° C., at 95% RH, after dewatering below 10% RH): 6.9%; stability relationship crystal form II / IV ([6]; room temperature and 50° C.): more stable than hydrate crystal form IV; stability relationship crystal form I / II ([6]; acetone/H2O, aw 0.2/0.4/0.6/0.8, room temperature, three days): more stable
C=CC(=O)Nc1cc(Nc2ncc(F)c(-c3cnn(C)c3)n2)c(OC)cc1N1CCC(N(C)C)CC1.O=C(O)C[C@H](O)C(=O)O [crystal form D]	99.37%	1.6%	1.3%	no	1.2%	no	84.4 ng/mL	1202 ng·h/mL	6.63 h	–
maleate	–	–	–	–	–	–	–	–	–	Solubility S ([8]; 1,4-dioxane): S < 1.0 mg/ml; Solubility S ([8]; 2-methyltetrahydrofuran): S < 0.9 mg/ml; Solubility S ([8]; N,N-dimethylacetamide): S > 20.0 mg/ml; Solubility S ([8]; N-methylpyrrolidone): S > 23.0 mg/ml; Solubility S ([8]; acetone): S < 1.1 mg/ml; Solubility S ([8]; dimethyl sulfoxide): S > 22.0 mg/ml; Solubility S ([8]; ethanol): S < 1.1 mg/ml; Solubility S ([8]; ethyl acetate): S < 0.9 mg/ml; Solubility S ([8]; isopropanol): S < 0.9 mg/ml; Solubility S ([8]; isopropyl acetate): S < 1.0 mg/ml; Solubility S ([8]; methyl isobutyl ketone): S < 0.9 mg/ml; Solubility S ([8]; methyl tert-butyl ether): S < 1.0 mg/ml; Solubility S ([8]; n-hexane): S < 1.0 mg/ml; Solubility S ([8]; tetrahydrofuran): S < 1.2 mg/ml; Solubility S ([8]; toluene): S < 1.1 mg/ml
C=CC(=O)Nc1cc(Nc2ncc(F)c(-c3cnn(C)c3)n2)c(OC)cc1N1CCC(N(C)C)CC1.O=P(O)(O)O [crystal form B]	99.56%	4.1%	4.6%	no	4.5%	no	93.2 ng/mL	1265 ng·h/mL	7.04 h	crystal form before and after the DVS test (XRPD) ([5]; 25° C.): does not change
C=CC(=O)Nc1cc(Nc2ncc(F)c(-c3cnn(C)c3)n2)c(OC)cc1N1CCC(N(C)C)CC1.O=C(O)/C=C\C(=O)O [crystal form C-1]	99.39%	0.1%	1.2%	no	1.3%	no	86.3 ng/mL	1233 ng·h/mL	7.92 h	crystal form before and after the DVS test (XRPD) ([5]; 25° C.): did not change; hygroscopicity ([5]; DVS, 25° C.): slightly hygroscopic; moisture absorbed ([5]; DVS): 0.3%; crystal form and HPLC purity before and after the test [9]: did not change; stability relationship crystal form C-1 / C-2 ([6]; acetone, room temperature and 50° C., stirring 5 minutes): higher thermodynamic stability than crystal form C-2
C=CC(=O)Nc1cc(Nc2ncc(F)c(-c3cnn(C)c3)n2)c(OC)cc1N1CCC(N(C)C)CC1.Cl [crystal form A]	99.45%	3.0%	4.3%	no	3.4%	no	93.3 ng/mL	1379 ng·h/mL	7.44 h	–
C=CC(=O)Nc1cc(Nc2ncc(F)c(-c3cnn(C)c3)n2)c(OC)cc1N1CCC(N(C)C)CC1.O=C(O)CCCCC(=O)O [crystal form E]	99.30%	0.1%	0.5%	no	0.4%	no	117 ng/mL	1660 ng·h/mL	7.46 h	crystal form before and after the DVS test (XRPD) ([5]; 25° C.): did not change; hygroscopicity ([5]; DVS, 25° C.): slightly hygroscopic; moisture absorbed ([5]; DVS): 0.5%
C=CC(=O)Nc1cc(Nc2nccc(-c3cn(C)c4ccccc34)n2)c(OC)cc1N(C)CCN(C)C [comparative compound 1]	–	–	–	–	–	–	–	–	–	IC50 (A431 cells [3]; Homo sapiens, A-431, 72 h incubation): […]; IC50 (H1975 cells [10]): 29 nM; IC50 (NIH3T3 cells): 3550 nM; IC50 (H1975 cells [4]; Homo sapiens, NCI-H1975, 72 h incubation): 13 nM; IC50 (A431 cells [11]): […]
CN(C)C/C=C/C(=O)Nc1cc2c(Nc3ccc(F)c(Cl)c3)ncnc2cc1O[C@H]1CCOC1 [BIBW2992]	–	–	–	–	–	–	–	–	–	IC50 (NIH3T3 cells): 2750 nM
